Data as given in ChEMBL document CHEMBL2321716, “Exploring a new frontier in cancer treatment: targeting the ubiquitin and ubiquitin-like activating enzymes” (J Med Chem, 2013).
≈ marks a conversion by molar mass, not a printed value.

What was measured:
[1] = Inhibition of UAE (unknown origin)-catalyzed UAE-Ub intermediate formation; set-up: species or system Homo sapiens
T47D = assay: Cytotoxicity against human T47D cells assessed as induction of cell death after 72 hrs by Alamar blue assay; assay type: functional; conditions: read-out: LD50 (the source's name)
DU-145 = assay: Cytotoxicity against human DU145 cells assessed as induction of cell death after 72 hrs by Alamar blue assay; assay type: functional; conditions: DU-145, 72 h, read-out: LD50 (the source's name)
PPC-1 = assay: Cytotoxicity against human PPC1 cells assessed as induction of cell death after 72 hrs by Alamar blue assay; assay type: functional; conditions: PPC-1, 72 h, read-out: LD50 (the source's name)
[2] = Cytotoxicity against human MDA468 cells assessed as induction of cell death after 72 hrs by Alamar blue assay; assay type: functional; conditions: MDA-MB-468, 72 h, read-out: LD50 (the source's name)
[3] = Cytotoxicity against human Leukemia cells assessed as induction of cell death after 72 hrs by Alamar blue assay; assay type: functional; conditions: read-out: LD50 (the source's name)
HT-29 = assay: Cytotoxicity against human HT-29 cells assessed as induction of cell death after 72 hrs by Alamar blue assay; assay type: functional; conditions: HT-29, 72 h, read-out: LD50 (the source's name)
[4] = Cytotoxicity against human KMS11 cells assessed as induction of cell death after 72 hrs by Alamar blue assay; assay type: functional; conditions: KMS-11, 72 h, read-out: LD50 (the source's name)
[5] = Cytotoxicity against human OVACR3 cells assessed as induction of cell death after 72 hrs by Alamar blue assay; assay type: functional; conditions: OVACR3, 72 h, read-out: LD50 (the source's name)
LP-1 = assay: Cytotoxicity against human LP-1 cells assessed as induction of cell death after 72 hrs by Alamar blue assay; assay type: functional; conditions: LP-1, 72 h, read-out: LD50 (the source's name)
HeLa = assay: Cytotoxicity against human HeLa cells assessed as induction of cell death after 72 hrs by Alamar blue assay; assay type: functional; conditions: read-out: LD50 (the source's name)
[6] = Cytotoxicity against human U226 cells assessed as induction of cell death after 72 hrs by Alamar blue assay; assay type: functional; conditions: U226, 72 h, read-out: LD50 (the source's name)
FaDu = assay: Cytotoxicity against human FADU cells assessed as induction of cell death after 72 hrs by Alamar blue assay; assay type: functional; conditions: read-out: LD50 (the source's name)
[7] = Inhibition of GST-tagged human recombinant UAE-catalyzed UAE-Ub thioester intermediate formation after 30 mins by fluorescence assay
[8] = Inhibition of N-terminal GST-tagged human UAE-catalyzed UAE-Ub thioester intermediate formation expressed in HI5 insect cells after 30 mins by immunoblotting analysis
[9] = Inhibition of mouse recombinant His6-tagged UAE-catalyzed UAE-Ub thioester intermediate formation expressed in insect cells by SDS-PAGE analysis
[10] = Inhibition of N-terminal GST-tagged human UAE-catalyzed [32P]-AMP:[a-32P]-ATP exchange expressed in HI5 insect cells by TLC analysis

Work on `CC(C)(O)/C=C/[C@@]12[C@H]3[C@@H](O)[C@@H]4O[C@@H]4[C@]1(O)OC(C)(C)[C@@H]2C=C1C(=O)[C@H]2O[C@H]2[C@H](O)[C@H]13` [PANEPOPHENANTHRIN] yielded an IC50 [1] of 17 µg/mL (≈ 40.4 µM).
In the case of `O=C1NN(c2ccc(F)c(Cl)c2)C(=O)/C1=C\c1ccc([N+](=O)[O-])o1`, the CC50 (T47D) is reported as 15 µM, the CC50 (DU-145) is reported as 15 µM and the CC50 (PPC-1) is reported as 15 µM. It also gave a CC50 [2] of 15 µM, a CC50 [3] of under 10 µM and a CC50 (HT-29) of 15 µM. It also gave a CC50 [4] of at most 3 µM, a CC50 [5] of 15 µM and a CC50 (LP-1) of at most 3 µM. The CC50 (HeLa) was 15 µM, the CC50 [6] was at most 3 µM and the CC50 (FaDu) was 15 µM. The IC50 [7] was 20 µM.
In the case of `CCOC(=O)c1ccc(N2NC(=O)/C(=C/c3ccc([N+](=O)[O-])o3)C2=O)cc1`, the IC50 [8] is reported as under 10 µM, the IC50 [9] is reported as under 10 µM and the IC50 [10] is reported as 6.4 µM.
